From patent US20060275873A1, “Autoinducer compound to improve the productivity of natamycin streptomyces strains” (priority 2003, published 2006)
Entries after “also recorded” stand apart in the source; their conditions may differ.

Tests used:
[1] = system: Streptomyces natalensis npi287; assay: Inducer bioassay: induction of natamycin production in mutant npi287 on solid SPG medium, read as inhibition zone in a Candida utilis overlay; assay type: cell-based; settings: for inducing activity on natamycin production by npi287: bioassay, Streptomyces natalensis npi287
Procedure: Dose-response representation is obtained from measuring points at 0, 110, 166, 220, 333, 446 and 500 nM of IP factor. Y-axis: natamycin-induced inhibition zone diameter in Candida utilis overlays in cm (see Example 5); x-axis: concentration of IP factor in nM.
The biological activity of IP factor was determined by its ability to induce natamycin production by mutant strain Streptomyces natalensis npi287 in solid SPG medium. After allowing growth of Streptomyces natalensis npi287 for 2 days at 30° C., samples of culture broths […] or different fractions from IP factor purification were added to wells (7 mm diameter) in the agar layer. The plate was overlaid with a culture of Candida utilis and incubated for 24 h at 28° C. The increment of the diameter of the natamycin inhibition zone after induction of natamycin in strain npi287 was proportional to the amount of IP factor in the sample.
The availability of the pure IP factor made it possible to quantify its inducing effect using the standard inducer assay with the npi287 strain (FIG. 2). […] The IP factor increased two-fold the diameter of natamycin inhibition zone (to above 50 millimeters) at concentration of 350 nM and the assay was saturated at concentrations above 400 nM. A threshold level of IP factor of about 50 nM was always required to detect the induction of natamycin production.

Streptomyces griseus HH1 [2] = settings: stated as well-known; cited from earlier work
Streptomyces griseus HH1 [3] = assay: Restoration of streptomycin production in the A factor negative strain; assay type: cell-based; settings: HPLC-pure IP factor, Streptomyces griseus HH1 mutant
Excerpt: In the examples given below, the following strains were used: The wild type Streptomyces natalensis ATCC 27448 was used as the parental strain to isolate different npi mutants. Streptomyces natalensis cultures were maintained in solid TBO sporulation medium (containing 20 g tomato paste per liter; 25 g oat meal per liter; and 25 g agar per liter) as described by Aparicio et al. (Chem. Biol. 7, 895-905, 2000). Candida utilis CECT 1061 (synonym Pichia jadinii) was used as test strain in the bioassay of the antifungal activity of natamycin. Cultures of Streptomyces griseus IFO 13350 (formerly described as Streptomyces bikiniensis IFO 13350) were used to produce A factor in YMPG medium (Horinouchi et al., J. Antibiot. 38, 636-641, 1985). Streptomyces griseus HH1 (an A factor negative strain) was used to quantify the A factor inducing activity.
The Streptomyces griseus 35570 A factor was purified by following its biological activity on the test strain Streptomyces griseus HH1, a mutant lacking streptomycin production due to its deficiency in A factor biosynthesis.

[4] = system: Streptomyces natalensis (wild type and npi287 mutant); assay: Stimulation of sporulation of Streptomyces natalensis; assay type: cell-based
[5] = system: Streptomyces natalensis ATCC 27448; assay: Natamycin production in liquid cultures of the wild type strain with exogenous auto inducer; assay type: cell-based; settings: 300 nM
Excerpt: FIG. 3A: Cell dry weight (▪); y-axis: dry weight concentration in mg/ml; x-axis: time in hours. FIG. 3B: (▴) Control without IP factor addition; (O) with IP factor addition; y-axis: natamycin concentration in μg/ml; x-axis: time in hours.
FIG. 4A: Cell dry weight (♦); y-axis: dry weight concentration in mg/ml; x-axis: time in hours. FIG. 4B: (▪) Control without IP factor addition; (□) with IP factor addition; y-axis: natamycin concentration in μg/ml; x-axis: time in hours.
FIG. 5A: Cell dry weight (▴); y-axis: dry weight concentration in mg/ml; x-axis: time in hours. FIG. 5B: (▪) Control without IP factor addition; (□) with IP factor addition; y-axis: natamycin concentration in μg/ml; x-axis: time in hours.
Four different complex media were used for quantification of the IP factor concentration and its relationship to natamycin production. These include: NBG medium (OXOID) supplemented with glucose (5 g/l); YEME medium (yeast extract 3 g/l; peptone […]; malt extract 3 g/l and glucose 10 g/l); TSB medium (DIFCO) and YED medium (yeast extract 10 g/l; glucose 10 g/l). In addition two defined media were also used to quantify the inducer production: Streptomyces MM (Kieser et al. in “Practical Streptomyces Genetics”, John Innes Foundation, Norwich, UK, 2000) and Lechevalier defined medium (Martin and McDaniel, Eur. J. Appl. Microbiol. 3, 135-144, 1976).
The production of natamycin in liquid cultures was routinely quantified by spectrophotometric determination at 319 nm. A 0.5 ml aliquot of the culture was extracted with 5 ml of methanol and diluted with distilled water; the concentration of natamycin was quantified as described previously (Aparicio et al. (Chem. Biol. 7, 895-905, 2000)) using a pure sample of natamycin (Sigma Chem. Co) as standard.

[6] = Solvent extraction of clarified culture broth (partition between organic and aqueous phase); assay type: physicochemical
Procedure: The culture broth (15 liters) from Streptomyces natalensis wild type strain grown for 24 h in YED medium in a Braun Biostat C fermentor was concentrated 10-fold in a vacuum evaporator. The concentrated broth was clarified by precipitating the proteins with 6M HCl at pH 3.0 in the cold room. The clarified broth was adjusted to pH 7.0 with concentrated NaOH and extracted. […] Enough IP factor could be extracted by repeated extractions with ethyl acetate to allow a good purification. The organic phases were then collected and concentrated to dryness under vacuum and the resultant product was dissolved in 100 ml of 10% methanol (v/v) and applied to an active carbon column (30×3 cm) previously equilibrated with the same solvent (10% methanol, v/v). The retained compounds including the IP factor were fractionated by stepwise elution (flow 2 ml/min) with 50% methanol (v/v), 100% methanol, 10% ethyl acetate in methanol (v/v), 50% ethyl acetate in methanol (v/v), and pure ethyl acetate (100%). […] The IP factor-containing fraction was then concentrated, applied onto a Sephadex GIO column (2000×1 cm) and eluted with distilled water (flow 0.8 ml/min). This size exclusion chromatography yielded 40 ml of active fractions.

Structure (SMILES): CC(C)CCCCC(=O)[C@@H]1C(=O)OCC1CO (stereo partly drawn) [A factor, 2-(6′-methylheptanoyl)-3R-hydroxymethyl-4-butanolide, reference compound]
- inducing activity on natamycin production by npi287 [1]: some inducing activity; also recorded: elicited natamycin production
- stimulation of sporulation (Streptomyces griseus HH1 [2]): stimulation of sporulation

Structure (SMILES): NC(CO)(CO)C(N)(CO)CO [IP factor, 2,3-diamino-2,3-bis(hydroxymethyl)-1,4-butanediol]
- diameter of natamycin inhibition zone ([1]; 350 nM IP factor): above 50 millimeters
- fold increase of the diameter of natamycin inhibition zone ([1]; 350 nM IP factor): two-fold
- inducing activity on natamycin production by npi287 [1]: strong inducing activity
- threshold level required to detect induction of natamycin production ([1]; standard inducer assay): about 50 nM
- IP factor concentration to which npi287 clearly responded ([1]; standard inducer assay, FIG. 2): 100 nM
- concentration above which the assay was saturated ([1]; standard inducer assay, FIG. 2): above 400 nM
- upper concentration of linear response of antibiotic production ([1]; standard inducer assay, FIG. 2): up to 350 nM
- restoration of streptomycin production (Streptomyces griseus HH1 [3]): negative
- stimulation of sporulation ([4]; npi287 mutant): did not stimulate sporulation
- stimulation of sporulation ([4]; wild type Streptomyces natalensis): did not stimulate sporulation
- production of natamycin on addition of exogenous inducer ([5]; NBG medium, FIG. 4): stimulated
- production of natamycin on addition of exogenous inducer ([5]; TSB medium, FIG. 3): stimulated
- production of natamycin on addition of exogenous inducer ([5]; YEME medium, FIG. 5): stimulated
- part remaining in the aqueous phase ([6]; ethyl acetate extraction at acidic, neutral or slightly basic (pH 7.5) pH): significant proportion
- part remaining in the aqueous phase ([6]; repeated extraction with chloroform): about 80%
